Source: US20160159805A1, “Heterocyclic sulfonylamino(thio)carbonyl-derivatives with nematicidal properties” (BAYER CROPSCIENCE AG, priority 2013, published 2016)

Test system: Meloidogyne incognita
Test: Meloidogyne incognita test (MELGIN), sand, gall formation on salad seedlings after 14 days
Type: in vivo
Settings: application rate 20 ppm, 100% = no galls, 0% = galls equal to untreated control
Method: 1. Meloidogyne incognita—test (MELGIN) [table] To produce a suitable preparation of active compound, 1 part by weight of active compound is mixed with the stated amount of solvent, and the concentrate is diluted with water to the desired concentration. Vessels are filled with sand, a solution of the active ingredient, a suspension containing eggs and larvae of the southern root-knot nematode (Meloidogyne incognita) and salad seeds. The salad seeds germinate and the seedlings grow. Galls develop in the roots. After 14 days the nematicidal activity is determined on the basis of the percentage of gall formation. 100% means no galls were found; 0% means the number of galls found on the roots of the treated plants was equal to that in untreated control plants.

In the case of `N#Cc1cnn(Cc2ccc(Cl)c(S(=O)(=O)NC(=O)c3cn4cc(C(F)(F)F)cc(Cl)c4n3)c2)c1` [Ia-14, 8-chloro-N-({2-chloro-5-[(4-cyano-1H-pyrazol-1-yl)methyl]phenyl}sulfonyl)-6-(trifluoromethyl)imidazo[1,2-a]pyridine-2-carboxamide], the “nematicidal activity on the basis of the percentage of gall formation” value is reported as 100%.
